Legend:
[1] = Inhibition of EV71 protease 3C expressed in Escherichia coli BL21 using substrate NMA-IEALFQGPPK(DNP)FR preincubated for 30 mins followed by substrate addition measured after 2 hrs; set-up: species or system Enterovirus A71
[2] = Cytotoxicity against human rhabdomyosarcoma cells assessed as decrease in cell viability after 24 hrs by WST-1 assay; assay type: toxicity, cell-based
Enterovirus A71 = assay: Antiviral activity against EV71 FY pseudotype virus infected in human rhabdomyosarcoma cells after 24 hrs by bright-glo luciferase reporter gene assay; assay type: functional; conditions: Enterovirus A

Row | SMILES | IC50 [1] [µM] | EC50 (Enterovirus A71) [µM] | Ki [1] [µM] | CC50 at 24 h [2] [µM]
1 | O=C[C@H](C[C@@H]1CCCNC1=O)NC(=O)[C@H](Cc1ccccc1)NC(=O)/C=C/c1ccccc1 | 0.54 |  | 0.37 | > 100
2 | Cc1cc(C(=O)N[C@@H](Cc2ccc(F)cc2)C(=O)N[C@H](C=O)C[C@@H]2CCCNC2=O)no1 | 0.1 |  | 0.07 | > 100
3 | COc1cc(/C=C/C(=O)N[C@@H](Cc2ccccc2)C(=O)N[C@H](C=O)C[C@@H]2CCCNC2=O)cc(OC)c1OC | 7.27 | 6.1 | 4.97 | > 100
4 | CCCC(=O)N[C@@H](Cc1ccccc1)C(=O)N[C@H](C=O)C[C@@H]1CCCNC1=O | 7.68 | 4.06 | 5.25 | > 100
5 | O=C[C@H](C[C@@H]1CCCNC1=O)NC(=O)[C@H](CC1CCCCC1)NC(=O)/C=C/c1ccccc1 | 1.19 | 1.04 | 0.81 | > 100
6 | O=C[C@H](C[C@@H]1CCCNC1=O)NC(=O)[C@H](Cc1ccccc1)NC(=O)c1ccco1 | 1.1 | 0.85 | 0.75 | > 100
7 | O=C[C@H](C[C@@H]1CCCNC1=O)NC(=O)[C@H](Cc1ccccc1)NC(=O)c1ccc(-c2ccccc2)cc1 | 1.93 | 0.91 | 1.32 | > 100
8 | CC(C)[C@H](NC(=O)/C=C/c1ccccc1)C(=O)N[C@H](C=O)C[C@@H]1CCCNC1=O | 5.68 | 16.7 | 3.88 | > 100
9 | O=C[C@H](C[C@@H]1CCCNC1=O)NC(=O)[C@H](Cc1ccccc1)NC(=O)c1ccncc1 | 1.42 | 8.6 | 0.97 | > 100
10 | COc1ccc(/C=C/C(=O)N[C@@H](Cc2ccccc2)C(=O)N[C@H](C=O)C[C@@H]2CCCNC2=O)cc1OC | 1.58 | 1.38 | 1.08 | > 100
11 | CCCCCC(=O)N[C@@H](Cc1ccccc1)C(=O)N[C@H](C=O)C[C@@H]1CCCNC1=O | 13.6 | 6.45 | 9.27 | > 100
12 | O=C[C@H](C[C@@H]1CCCNC1=O)NC(=O)[C@H](Cc1ccccc1)NC(=O)CCc1ccccc1 | 0.75 | 0.57 | 0.51 | > 100
13 | CC(C)C[C@H](NC(=O)/C=C/c1ccccc1)C(=O)N[C@H](C=O)C[C@@H]1CCCNC1=O | 2.78 | 2.36 | 1.9 | > 100

The next lines start with results.

Row | IC50 [1] [µM] | EC50 (Enterovirus A71) [µM] | SMILES | Ki [1] [µM] | CC50 at 24 h [2] [µM]
14 | 0.47 | 0.26 | O=C[C@H](C[C@@H]1CCCNC1=O)NC(=O)[C@H](Cc1ccc(F)cc1)NC(=O)/C=C/c1ccc(F)cc1 | 0.32 | > 100
15 | 0.44 | 0.2 | O=C[C@H](C[C@@H]1CCCNC1=O)NC(=O)[C@H](Cc1ccc(F)cc1)NC(=O)/C=C/c1ccccc1 | 0.3 | > 100
16 | 0.7 | 0.54 | O=C[C@H](C[C@@H]1CCCNC1=O)NC(=O)[C@H](Cc1ccccc1)NC(=O)Cc1ccccc1 | 0.48 | > 100
17 | 0.59 | 0.32 | O=C[C@H](C[C@@H]1CCCNC1=O)NC(=O)[C@H](Cc1ccccc1)NC(=O)/C=C/c1ccc(F)cc1 | 0.4 | > 100
18 | 0.41 | 0.18 | COc1ccc(/C=C/C(=O)N[C@@H](Cc2ccc(F)cc2)C(=O)N[C@H](C=O)C[C@@H]2CCCNC2=O)cc1 | 0.28 | > 100
19 | 0.42 | 0.21 | O=C[C@H](C[C@@H]1CCCNC1=O)NC(=O)[C@H](Cc1ccccc1)NC(=O)c1cccs1 | 0.29 | > 100
20 | 0.29 | 0.16 | O=C[C@H](C[C@@H]1CCCNC1=O)NC(=O)[C@H](Cc1ccc(F)cc1)NC(=O)c1cccs1 | 0.2 | > 100
21 | 0.49 | 0.23 | COc1ccc(/C=C/C(=O)N[C@@H](Cc2ccccc2)C(=O)N[C@H](C=O)C[C@@H]2CCCNC2=O)cc1 | 0.33 | > 100
22 | 0.44 | 3.55 | O=C[C@H](C[C@@H]1CCCNC1=O)NC(=O)[C@H](Cc1ccccc1)NC(=O)c1cccnc1 | 0.3 | > 100
23 | 0.22 | 0.18 | Cc1cc(C(=O)N[C@@H](Cc2ccccc2)C(=O)N[C@H](C=O)C[C@@H]2CCCNC2=O)no1 | 0.22 | > 100
24 | 0.55 | 0.38 | O=C[C@H](C[C@@H]1CCCNC1=O)NC(=O)[C@H](Cc1ccccc1)NC(=O)c1ccccc1 | 0.38 | > 100

— ChEMBL document CHEMBL3875160, “Structure-activity relationship study of peptidomimetic aldehydes as enterovirus 71 3C protease inhibitors” (Eur J Med Chem, 2016)
